# Reference: patent US8592174B2, “Peptidase substrates” (bioMérieux, S.A., priority 2009, dated 2013)
# Legend:
# Type in all cases: cell-based
# [1] = test system: Burkholderia cepacia 7507032; test: Peptidase detection on Columbia medium (Example 5); details: 75 mg/l, 48 h 37° C.
# Method: (§1) After homogenization, the media were distributed into Petri dishes 55 mm in diameter. A medium acting as a growth control (Columbia) and denoted C was also poured.
# (§2) Twenty-two strains of microorganisms were inoculated with a 10 μl calibrated loop according to the three-quadrant streaking method using bacterial suspensions at 0.5 McFarland.
# Candida glabrata 0408083 = test: Peptidase detection on Columbia medium (Example 5); details: 75 mg/l, 48 h 37° C.
# Method: as §1, §2
# [2] = test system: Streptococcus pyogenes 9806380; test: Peptidase detection on Columbia medium (Example 5); details: 75 mg/l, 48 h 37° C.
# Method: as §1, §2
# [3] = test system: Yersinia enterocolitica 7605019; test: Peptidase detection on Columbia medium (Example 5); details: 75 mg/l, 48 h 37° C.
# Method: as §1, §2
# [4] = test system: Enterococcus faecium 0610021; test: Peptidase detection on Columbia medium (Example 5); details: 75 mg/l, 48 h 37° C.
# Method: as §1, §2
# MRSA 0303033 = test: Peptidase detection on Columbia medium (Example 5); details: 75 mg/l, 48 h 37° C.
# Method: as §1, §2
# [5] = test system: Enterobacter cloacae 0604040; test: Peptidase detection on Columbia medium (Example 5); details: 75 mg/l, 48 h 37° C.
# Method: as §1, §2
# [6] = test system: Acinetobacter baumannii 0604029; test: Peptidase detection on Columbia medium (Example 5); details: 75 mg/l, 48 h 37° C.
# Method: as §1, §2
# [7] = test system: Staphylococcus aureus 7811049; test: Peptidase detection on Columbia medium (Example 5); details: 75 mg/l, 48 h 37° C.
# Method: as §1, §2
# [8] = test system: Salmonella ser. Typhimurium 0801029; test: Peptidase detection on Columbia medium (Example 5); details: 75 mg/l, 48 h 37° C.
# Method: as §1, §2
# Escherichia coli 0002005 = test: Peptidase detection on Columbia medium (Example 5); details: 75 mg/l, 48 h 37° C.
# Method: as §1, §2
# [9] = test system: Morganella morganii 9207053; test: Peptidase detection on Columbia medium (Example 5); details: 75 mg/l, 48 h 37° C.
# Method: as §1, §2
# [10] = test system: Bacillus subtilis 0204038; test: Peptidase detection on Columbia medium (Example 5); details: 75 mg/l, 48 h 37° C.
# Method: as §1, §2
# [11] = test system: Citrobacter freundii 0006197; test: Peptidase detection on Columbia medium (Example 5); details: 75 mg/l, 48 h 37° C.
# Method: as §1, §2
# [12] = test system: Serratia marcescens 7303004; test: Peptidase detection on Columbia medium (Example 5); details: 75 mg/l, 48 h 37° C.
# Method: as §1, §2
# [13] = test system: Providencia rettgeri 0706064; test: Peptidase detection on Columbia medium (Example 5); details: 75 mg/l, 48 h 37° C.
# Method: as §1, §2
# [14] = test system: Klebsiella pneumoniae 0008009; test: Peptidase detection on Columbia medium (Example 5); details: 75 mg/l, 48 h 37° C.
# Method: as §1, §2
# [15] = test system: Enterococcus faecalis 0008192; test: Peptidase detection on Columbia medium (Example 5); details: 75 mg/l, 48 h 37° C.
# Method: as §1, §2
# [16] = test system: Leclercia adecarboxylata 97 04 041; test: pH variation detection on modified chromID Coli medium (Example 6); design: Coloration strength: key to the marks not given beside the values; details: 50 mg/l, 24 h 37° C.
# Method: (§3) The media were incubated for 24 hours at 37° C., then the spots formed were examined visually.
# Shigella spp 76 02 055 = test: as above; design: Coloration strength: key to the marks not given beside the values; details: 50 mg/l, 24 h 37° C.
# Method: as §3
# [17] = test system: Providencia stuartii 92 12 101; test: as above; design: Coloration strength: key to the marks not given beside the values; details: 50 mg/l, 24 h 37° C.
# Method: as §3
# [18] = test system: Shigella sonnei 92 11 060; test: as above; design: Coloration strength: key to the marks not given beside the values; details: 50 mg/l, 24 h 37° C.
# Method: as §3
# [19] = test system: Escherichia vulneris 85 06 777; test: as above; design: Coloration strength: key to the marks not given beside the values; details: 50 mg/l, 24 h 37° C.
# Method: as §3
# E. coli 05 06 052 = test: as above; design: Coloration strength: key to the marks not given beside the values; details: 50 mg/l, 24 h 37° C.
# Method: as §3
# [20] = test system: Providencia rettgeri NCTC 7 475; test: Peptidase detection on Columbia medium (Example 2); design: key to Growth: NG: No growth; 0.5: weak growth; 1: moderate growth; 2: good growth; details: 40 mg in 400 ml Columbia; 24 h 37° C.
# [21] = test system: Candida albicans ATCC 90 028; test: Peptidase detection on Columbia medium (Example 2); design: key to Growth: NG: No growth; 0.5: weak growth; 1: moderate growth; 2: good growth; key to Fluo. / Color / Color post-acid.: —: no color; details: 40 mg in 400 ml Columbia; 24 h 37° C.
# Method: (§4) The 6 media were distributed into Petri dishes 90 mm in diameter, in a proportion of 20 ml per dish.
# (§5) Seventeen strains of microorganisms stemming from collections and belonging to various species of bacteria and yeasts are inoculated in spots of approximately 10 000 colony-forming units.
# (§6) The media are incubated for 24 hours at 37° C., and then the colonies formed are examined visually, with or without the addition of acid and under a UV lamp at 365 nm.
# [22] = test system: Enterococcus faecium NCTC 7 171; test: Peptidase detection on Columbia medium (Example 2); design: key to Growth: NG: No growth; 0.5: weak growth; 1: moderate growth; 2: good growth; key to Fluo. / Color / Color post-acid.: —: no color; details: 40 mg in 400 ml Columbia; 24 h 37° C.
# [23] = test system: Enterococcus faecalis NCTC 775; test: Peptidase detection on Columbia medium (Example 2); design: key to Growth: NG: No growth; 0.5: weak growth; 1: moderate growth; 2: good growth; details: 40 mg in 400 ml Columbia; 24 h 37° C.
# Method: as §4, §5, §6
smiles,measurement,setting,value
C[C@H](N)C(=O)Nc1ccc(C=Cc2cc[n+](C)c3ccccc23)cc1.Cl.[Cl-] [L-alanyl-4-(4′-amidostyryl)-N-methylquinolinium (dichloride)],Color,[1],−
same,Coloration strength,[1],−
same,Growth,[1]; control C: ++,++
same,Color,Candida glabrata 0408083,−
same,Coloration strength,Candida glabrata 0408083,−
same,Growth,Candida glabrata 0408083; control C: +,+
same,Color,[2],orange
same,Coloration strength,[2],+
same,Growth,[2]; control C: +,+
same,Color,[3],orange
same,Coloration strength,[3],++
same,Growth,[3]; control C: +,+
same,Color,[4],−
same,Coloration strength,[4],−
same,Growth,[4]; control C: +,+
same,Color,MRSA 0303033,orange
same,Coloration strength,MRSA 0303033,++
same,Growth,MRSA 0303033; control C: ++,++
same,Color,[5],orange
same,Coloration strength,[5],+
same,Growth,[5]; control C: ++,++
same,Color,[6],orange
same,Coloration strength,[6],++
same,Growth,[6]; control C: ++,++
same,Color,[7],orange
same,Coloration strength,[7],+
same,Growth,[7]; control C: ++,++
same,Color,[8],−
same,Coloration strength,[8],−
same,Growth,[8]; control C: ++,++
same,Color,Escherichia coli 0002005,orange
same,Coloration strength,Escherichia coli 0002005,++
same,Growth,Escherichia coli 0002005; control C: ++,++
same,Color,[9],orange
same,Coloration strength,[9],++
same,Growth,[9]; control C: ++,++
same,Color,[10],orange
same,Coloration strength,[10],+
same,Growth,[10]; control C: ++,++
same,Color,[11],orange
same,Coloration strength,[11],++
same,Growth,[11]; control C: ++,++
same,Color,[12],orange
same,Coloration strength,[12],++
same,Growth,[12]; control C: ++,++
same,Color,[13],orange
same,Coloration strength,[13],++
same,Growth,[13]; control C: ++,++
same,Color,[14],orange
same,Coloration strength,[14],++
same,Growth,[14]; control C: ++,++
same,Color,[15],orange
same,Coloration strength,[15],+
same,Growth,[15]; control C: +,+
Nc1ccc(C=Cc2ccnc3ccccc23)cc1,Color,[16],Orange
same,Coloration strength,[16],++
same,Growth,[16]; control C: ++,++
same,Color,Shigella spp 76 02 055,Orange
same,Coloration strength,Shigella spp 76 02 055,++
same,Growth,Shigella spp 76 02 055; control C: ++,++
same,Color,[17],Orange
same,Coloration strength,[17],++
same,Growth,[17]; control C: ++,++
same,Color,[18],Orange
same,Coloration strength,[18],++
same,Growth,[18]; control C: ++,++
same,Color,[19],Orange
same,Coloration strength,[19],++
same,Growth,[19]; control C: ++,++
same,Color,E. coli 05 06 052,Orange
same,Coloration strength,E. coli 05 06 052,++
same,Growth,E. coli 05 06 052; control C: ++,++
"C[C@H](N)C(=O)N[C@@H](C)C(=O)N[C@@H](C)C(=O)Nc1ccc(C=Cc2cc[n+](C)c3ccccc23)cc1.Cl.[Cl-] [Tri-Ala-ASQM^+, L-alanyl-L-alanyl-L-alanyl-4-(4′-amidostyryl)-N-methylquinolinium (dichloride)]",Growth,[20],2
same,Color,[21],—
same,Growth,[21],2
same,Color,[22],—
same,Growth,[22],2
same,Growth,[23],2
